The results in this text go back to the supplement of paper PMC11061612.

Structures are written as SMILES.

Common to all, as to assay: Bliss excess, mean over the matrix (fraction); higher = more synergy
Test [1] has as its system PC-3 (Prostate Carcinoma). Put shortly:
(§1)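 Cell lines in DMEM/F12 or RPMI with 10% FBS were plated in 1536-well plates, held 24 hours at 37°C, 5% CO2, then given two-drug dose matrices for 72 hours (DMSO typically 0.2%). Viability was read by CellTiter-Glo 2.0 luminescence and scaled as inhibition from 0 (vehicle wells) to 1 (blank wells). Combination Emax is the second-highest inhibition in the matrix; Bliss excess is observed combination effect minus expected EA + EB − EA·EB, EA and EB being single-agent effects.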

Test [2] deals with NCCIT (Other Solid Carcinomas). Put shortly:
as §1

In test [3] the test system is H9 (T-Cell Non-Hodgkin's Lymphoma). An outline of the steps:
as §1

Test [4] relates to HCC1187 (Breast Carcinoma). An outline of the steps:
as §1

The subject of test [5] is MOG-G-CCM (Low Grade Glioma). Put shortly: as §1
In test [6] the test system is MN-60 (B-Lymphoblastic Leukemia). An outline of the steps: as §1
Test [7] relates to NCI-H526 (Small Cell Lung Carcinoma). An outline of the steps:
as §1

The test system of test [8] is SUP-B15 (B-Lymphoblastic Leukemia). An outline of the steps:
as §1

In test [9] the test system is SK-GT-4 (Esophageal Adenocarcinoma). An outline of the steps: as §1
Test [10] deals with CHSA8926 (Chondrosarcoma). Put shortly: as §1
The test system of test [11] is ST486 (Burkitt's Lymphoma). Put shortly:
as §1

In test [12] the test system is VMRC-RCZ (Kidney Carcinoma). An outline of the steps:
as §1

The test system of test [13] is NCI-H3122 (Lung Adenocarcinoma). Put shortly: as §1
Test [14] relates to DMS-114 (Small Cell Lung Carcinoma). An outline of the steps:
as §1

For test [15], the system named is DAN-G (Pancreatic Carcinoma). An outline of the steps: as §1
For test [16], the system named is CW-2 (Colorectal Carcinoma). An outline of the steps: as §1
The subject of test [17] is HCC1419 (Breast Carcinoma). An outline of the steps: as §1
For test [18], the system named is KYSE-270 (Esophageal Squamous Cell Carcinoma). Put shortly: as §1
Test [19] relates to KU812 (Chronic Myelogenous Leukemia). An outline of the steps:
as §1

For the next test, the system named is RD (Rhabdomyosarcoma). Put shortly: as §1

Turning to `CN(C)CCCOc1ccc(-c2ccc3ncc4c(c3c2)n(C2CCOCC2)c(=O)n4C)cn1` [AZD0156] + C=CCn1c(=O)c2cnc(Nc3ccc(N4CCN(C)CC4)cc3)nc2n1-c1cccc(C(C)(C)O)n1 [AZD1775] (first compound max 1 µM, partner max 1 µM), the Bliss excess in [1] is -0.0501; in test [2] it was 0.0278; in test [3], -0.0167; in [4] it was -0.0117; in test [5] it was -0.0193; in [6], 0.0193. In addition, the Bliss excess in test [7] was -0.0258; in [8] it was 0.0282; in test [9], -0.0676; in test [10], -0.106; in test [11] it was 0.0097; in test [12], -0.0797. The Bliss excess is -0.0352 in test [13]; -0.0479 in test [14]; -0.0064 in [15]; -0.0106 in test [16]; -0.0446 in [17]; 0.0314 in [18]. Also, the Bliss excess in [19] is -0.0046; in the test on RD (Rhabdomyosarcoma) it was -0.0377.
As for `CN(C)CCCOc1ccc(-c2ccc3ncc4c(c3c2)n(C2CCOCC2)c(=O)n4C)cn1` [AZD0156] + CCN(CCO)CCCOc1ccc2c(Nc3cc(CC(=O)Nc4cccc(F)c4)[nH]n3)ncnc2c1 [AZD2811] (first compound max 1 µM, 7x7, partner max 1 µM), the Bliss excess in test [1] was -0.0243; in test [2], -0.0059; in test [3], -0.124; in [4], -0.0596; in test [5], -0.0228; in test [6], -0.016. Further, the Bliss excess is 0.0113 in test [7]; -0.0595 in test [8]; -0.0603 in test [9]; -0.0389 in [10]; -0.11 in test [11]; -0.0451 in test [12]. Further, the Bliss excess in [13] was -0.0048; in test [14], -0.0209; in test [15], 0.0128; in test [16], -0.0163; in test [17], -0.0427; in [18], -0.0307. Besides, the Bliss excess is -0.0158 in [19] and -0.0374 in the test with RD (Rhabdomyosarcoma).
Regarding `CN(C)CCCOc1ccc(-c2ccc3ncc4c(c3c2)n(C2CCOCC2)c(=O)n4C)cn1` [AZD0156] + C[C@@H]1COCCN1C2=NC(=NC(=C2)C3(CC3)[S@](=N)(=O)C)C4=C5C=CNC5=NC=C4 [AZD6738] (first compound max 1 µM, 7x7, partner max 10 µM), the Bliss excess in test [1] is -0.0168; in test [2], -0.0174; in test [3], 0.0525; in [4] it was 0.0161; in test [5] it was -0.0593; in test [6] it was -0.0041. Moreover, the Bliss excess was -0.0051 in test [7]; 0.0247 in test [8]; -0.0006 in test [9]; -0.0328 in test [10]; 0.0016 in test [11]; -0.0479 in [12]. The Bliss excess is 0.0218 in test [13]; -0.0138 in test [14]; 0.0425 in test [15]; -0.0131 in [16]; -0.0295 in [17]; 0.0568 in test [18]. In addition, the Bliss excess in test [19] was -0.0299; in the test with RD (Rhabdomyosarcoma) it was -0.0333.
For `CN(C)CCCOc1ccc(-c2ccc3ncc4c(c3c2)n(C2CCOCC2)c(=O)n4C)cn1` [AZD0156] + O=C(c1cc(Cc2n[nH]c(=O)c3ccccc23)ccc1F)N1CCN(C(=O)C2CC2)CC1 [Olaparib] (first compound max 3 µM, partner max 3 µM), the Bliss excess in [1] is -0.0088; in test [2], 0.0093; in test [3], 0.0284; in [4] it was 0.0813; in [5], 0.0005; in test [6], -0.0615. The Bliss excess is 0.167 in test [7]; -0.0159 in test [8]; 0.0611 in [9]; -0.0022 in test [10]; 0.24 in test [11]; -0.0283 in test [12]. Further, the Bliss excess is -0.0062 in test [13]; -0.0425 in [14]; 0.0824 in test [15]; -0.0031 in [16]; -0.0673 in test [17]; 0.0509 in test [18]. Moreover, the Bliss excess in test [19] turned out to be 0.264; in the test with RD (Rhabdomyosarcoma), 0.0333.
With `C=CCn1c(=O)c2cnc(Nc3ccc(N4CCN(C)CC4)cc3)nc2n1-c1cccc(C(C)(C)O)n1` [AZD1775] + C1CN(CCC1(C(=O)N[C@@H](CCO)C2=CC=C(C=C2)Cl)N)C3=NC=NC4=C3C=CN4 [Capivasertib] (first compound max 3 µM, partner max 3 µM), the Bliss excess in test [1] was -0.0617; in [2] it was 0.0254; in test [3], -0.0311; in test [4], 0.0216; in test [5], -0.0224; in [6] it was -0.0565. Further, the Bliss excess in test [7] is -0.06; in test [8], 0.0073; in test [9], -0.0802; in test [10], 0.0361; in test [11], 0.0215; in test [12] it was -0.083. In addition, the Bliss excess in test [13] was -0.0298; in test [14], -0.0132; in [15], -0.0191; in [16] it was -0.0487; in test [17] it was -0.005; in test [19], -0.0326. In addition, the Bliss excess with RD (Rhabdomyosarcoma) is -0.034.
`C=CCn1c(=O)c2cnc(Nc3ccc(N4CCN(C)CC4)cc3)nc2n1-c1cccc(C(C)(C)O)n1` [AZD1775] + C[C@@H]1COCCN1C2=NC(=NC(=C2)C3(CC3)[S@](=N)(=O)C)C4=C5C=CNC5=NC=C4 [AZD6738] (first compound max 1 µM, partner max 10 µM): the Bliss excess was -0.0049 in test [1]; 0.0526 in [2]; 0.0607 in test [3]; 0.0558 in test [4]; 0.0195 in test [5]; 0.0165 in [6]. Further, the Bliss excess is 0.0576 in test [7]; 0.0535 in [8]; 0.0046 in test [9]; -0.0268 in test [10]; -0.0044 in [11]; -0.0639 in test [12]. For the same molecule, the Bliss excess was 0.0165 in test [13]; 0.0422 in test [14]; -0.0079 in test [15]; 0.0554 in test [16]; -0.0034 in test [17]; 0.0567 in [18]. Besides, the results for the Bliss excess (in test [19]; in the test on RD (Rhabdomyosarcoma)) were 0.0459 and 0.0125, respectively.
`C=CCn1c(=O)c2cnc(Nc3ccc(N4CCN(C)CC4)cc3)nc2n1-c1cccc(C(C)(C)O)n1` [AZD1775] + O=C(c1cc(Cc2n[nH]c(=O)c3ccccc23)ccc1F)N1CCN(C(=O)C2CC2)CC1 [Olaparib] (first compound max 1 µM, partner max 10 µM): the Bliss excess is -0.0663 in test [1]; -0.0458 in [2]; -0.0075 in [3]; 0.0546 in test [4]; -0.0542 in test [5]; -0.0143 in test [6]. Besides, the Bliss excess in test [7] is -0.0152; in test [8], -0.0148; in test [9], -0.0709; in [10], -0.0167; in test [11], -0.0197; in test [12], -0.0443. For the same molecule, the Bliss excess in [13] was -0.0111; in [14], -0.021; in test [15], -0.0142; in test [16] it was 0.0127; in test [17] it was -0.047; in test [18] it was -0.0166. Moreover, the results for the Bliss excess (in test [19]; with RD (Rhabdomyosarcoma)) were -0.039 and -0.0532, respectively.
